{
  "source": "paper PMC3817851",
  "about": "“Enzyme activity effects of N-terminal His-tag attached to catalytic sub-unit of phosphoinositide-3-kinase” (Bioscience Reports, 2013)",
  "assay_type_in_all_cases": "biochemical",
  "key": {"[1]": {"target": "T1, p110δ (PI 3-Kδ, p110δ/p85α) (Homo sapiens, UniProt O00329)", "T1 construct": "gene PIK3CD; full-length p110δ with N-His6-rTEV tag (tag removed by rTEV) co-expressed with full-length p85α; baculovirus/Sf9; IMAC, MonoQ; heterodimer; with Phosphatidylinositol 3-kinase regulatory subunit alpha", "T1 sequence (O00329 whole entry)": "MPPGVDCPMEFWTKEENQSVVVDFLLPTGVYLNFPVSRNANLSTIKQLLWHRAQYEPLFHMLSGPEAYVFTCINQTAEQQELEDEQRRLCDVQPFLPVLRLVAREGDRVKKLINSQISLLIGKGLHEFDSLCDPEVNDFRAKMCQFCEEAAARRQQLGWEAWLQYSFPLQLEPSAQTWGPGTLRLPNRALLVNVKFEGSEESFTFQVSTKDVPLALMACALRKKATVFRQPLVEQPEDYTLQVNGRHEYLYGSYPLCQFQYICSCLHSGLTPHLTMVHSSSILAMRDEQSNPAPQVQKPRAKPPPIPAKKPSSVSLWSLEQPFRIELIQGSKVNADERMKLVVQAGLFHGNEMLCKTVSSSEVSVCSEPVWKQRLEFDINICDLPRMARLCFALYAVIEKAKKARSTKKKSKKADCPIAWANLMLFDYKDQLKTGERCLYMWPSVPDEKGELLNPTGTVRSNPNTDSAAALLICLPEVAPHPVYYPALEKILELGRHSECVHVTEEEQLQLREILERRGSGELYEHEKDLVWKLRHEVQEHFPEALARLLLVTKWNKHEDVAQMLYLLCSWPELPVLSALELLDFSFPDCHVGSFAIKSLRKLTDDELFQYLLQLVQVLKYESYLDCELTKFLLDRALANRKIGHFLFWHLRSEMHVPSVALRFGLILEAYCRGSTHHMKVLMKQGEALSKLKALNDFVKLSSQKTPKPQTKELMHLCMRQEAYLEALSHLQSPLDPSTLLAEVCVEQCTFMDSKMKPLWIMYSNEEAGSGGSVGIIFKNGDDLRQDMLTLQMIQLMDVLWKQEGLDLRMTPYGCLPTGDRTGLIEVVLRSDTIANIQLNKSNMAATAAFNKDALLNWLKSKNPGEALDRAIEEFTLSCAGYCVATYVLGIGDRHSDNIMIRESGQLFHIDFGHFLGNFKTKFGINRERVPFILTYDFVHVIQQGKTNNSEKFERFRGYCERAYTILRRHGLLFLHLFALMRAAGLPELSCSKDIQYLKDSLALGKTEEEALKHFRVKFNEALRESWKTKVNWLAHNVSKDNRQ", "T1 sequence (P27986 2-724 partner)": "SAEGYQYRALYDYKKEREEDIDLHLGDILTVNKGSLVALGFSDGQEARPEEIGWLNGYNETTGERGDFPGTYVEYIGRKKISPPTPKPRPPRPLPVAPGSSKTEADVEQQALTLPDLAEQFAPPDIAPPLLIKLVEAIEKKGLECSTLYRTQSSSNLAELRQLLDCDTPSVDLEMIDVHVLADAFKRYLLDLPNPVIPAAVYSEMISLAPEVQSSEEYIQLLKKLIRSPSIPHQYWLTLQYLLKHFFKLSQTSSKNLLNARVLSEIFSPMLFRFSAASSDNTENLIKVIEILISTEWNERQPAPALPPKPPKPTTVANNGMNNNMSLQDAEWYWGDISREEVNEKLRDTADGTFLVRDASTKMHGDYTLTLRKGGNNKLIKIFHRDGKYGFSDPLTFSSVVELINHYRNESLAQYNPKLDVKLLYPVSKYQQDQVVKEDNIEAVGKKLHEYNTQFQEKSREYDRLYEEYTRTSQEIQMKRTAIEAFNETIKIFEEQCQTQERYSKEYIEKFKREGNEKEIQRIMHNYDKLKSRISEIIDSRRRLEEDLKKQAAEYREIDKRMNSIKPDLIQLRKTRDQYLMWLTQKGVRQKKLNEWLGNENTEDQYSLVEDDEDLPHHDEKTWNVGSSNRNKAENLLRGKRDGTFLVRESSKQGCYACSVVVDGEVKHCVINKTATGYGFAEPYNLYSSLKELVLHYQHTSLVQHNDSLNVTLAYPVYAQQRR", "test": "HTRF kinetics, […] ATP", "settings": "PI([…])P2 co-substrate, His-tag removed"}, "[2]": {"target": "T2, p110β (PI 3-Kβ, p110β/p85α) (Homo sapiens, UniProt P42338)", "T2 construct": "gene PIK3CB; full-length p110β with N-His6-rTEV tag (tag removed by rTEV) co-expressed with full-length p85α; baculovirus/Sf9; IMAC, MonoQ; heterodimer; with Phosphatidylinositol 3-kinase regulatory subunit alpha", "T2 sequence (P42338 whole entry)": "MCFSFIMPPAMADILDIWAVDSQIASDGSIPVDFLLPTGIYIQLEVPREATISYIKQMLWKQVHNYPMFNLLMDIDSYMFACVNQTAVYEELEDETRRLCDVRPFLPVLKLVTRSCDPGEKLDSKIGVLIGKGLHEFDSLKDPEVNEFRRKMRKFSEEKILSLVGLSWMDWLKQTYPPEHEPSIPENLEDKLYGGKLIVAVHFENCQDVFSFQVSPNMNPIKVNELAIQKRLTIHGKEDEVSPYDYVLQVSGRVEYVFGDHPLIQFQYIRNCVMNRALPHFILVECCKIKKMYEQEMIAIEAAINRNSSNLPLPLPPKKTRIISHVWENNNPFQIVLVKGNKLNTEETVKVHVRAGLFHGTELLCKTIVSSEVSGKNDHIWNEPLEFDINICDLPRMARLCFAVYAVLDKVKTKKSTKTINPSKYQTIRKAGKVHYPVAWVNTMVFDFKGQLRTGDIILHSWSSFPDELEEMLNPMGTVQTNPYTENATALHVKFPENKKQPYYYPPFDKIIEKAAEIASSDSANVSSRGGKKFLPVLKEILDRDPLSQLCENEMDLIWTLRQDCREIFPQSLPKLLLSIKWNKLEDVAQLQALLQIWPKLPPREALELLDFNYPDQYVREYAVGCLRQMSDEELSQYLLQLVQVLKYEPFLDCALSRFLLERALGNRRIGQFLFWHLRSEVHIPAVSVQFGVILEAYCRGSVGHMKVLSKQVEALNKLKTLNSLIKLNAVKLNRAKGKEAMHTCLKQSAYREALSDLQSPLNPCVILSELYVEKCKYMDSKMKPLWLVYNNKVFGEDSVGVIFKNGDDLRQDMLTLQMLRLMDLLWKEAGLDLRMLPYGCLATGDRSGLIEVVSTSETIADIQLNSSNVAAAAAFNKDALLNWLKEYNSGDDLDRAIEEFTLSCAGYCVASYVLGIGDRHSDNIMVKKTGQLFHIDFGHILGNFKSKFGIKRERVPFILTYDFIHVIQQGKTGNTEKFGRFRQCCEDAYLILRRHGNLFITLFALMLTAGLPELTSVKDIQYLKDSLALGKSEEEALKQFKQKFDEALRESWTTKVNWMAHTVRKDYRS", "T2 sequence (P27986 2-724 partner)": "as the sequence (P27986 2-724 partner) above", "test": "HTRF kinetics, […] ATP", "settings": "PI([…])P2 co-substrate, His-tag removed"}, "[3]": {"target": "T3, p110α (PI 3-Kα, p110α/p85α) (Homo sapiens, UniProt P42336)", "T3 construct": "gene PIK3CA; full-length p110α with N-His6-rTEV tag (tag removed by rTEV) co-expressed with full-length p85α; baculovirus/Sf9; IMAC, MonoQ; heterodimer; with Phosphatidylinositol 3-kinase regulatory subunit alpha", "T3 sequence (P42336 whole entry)": "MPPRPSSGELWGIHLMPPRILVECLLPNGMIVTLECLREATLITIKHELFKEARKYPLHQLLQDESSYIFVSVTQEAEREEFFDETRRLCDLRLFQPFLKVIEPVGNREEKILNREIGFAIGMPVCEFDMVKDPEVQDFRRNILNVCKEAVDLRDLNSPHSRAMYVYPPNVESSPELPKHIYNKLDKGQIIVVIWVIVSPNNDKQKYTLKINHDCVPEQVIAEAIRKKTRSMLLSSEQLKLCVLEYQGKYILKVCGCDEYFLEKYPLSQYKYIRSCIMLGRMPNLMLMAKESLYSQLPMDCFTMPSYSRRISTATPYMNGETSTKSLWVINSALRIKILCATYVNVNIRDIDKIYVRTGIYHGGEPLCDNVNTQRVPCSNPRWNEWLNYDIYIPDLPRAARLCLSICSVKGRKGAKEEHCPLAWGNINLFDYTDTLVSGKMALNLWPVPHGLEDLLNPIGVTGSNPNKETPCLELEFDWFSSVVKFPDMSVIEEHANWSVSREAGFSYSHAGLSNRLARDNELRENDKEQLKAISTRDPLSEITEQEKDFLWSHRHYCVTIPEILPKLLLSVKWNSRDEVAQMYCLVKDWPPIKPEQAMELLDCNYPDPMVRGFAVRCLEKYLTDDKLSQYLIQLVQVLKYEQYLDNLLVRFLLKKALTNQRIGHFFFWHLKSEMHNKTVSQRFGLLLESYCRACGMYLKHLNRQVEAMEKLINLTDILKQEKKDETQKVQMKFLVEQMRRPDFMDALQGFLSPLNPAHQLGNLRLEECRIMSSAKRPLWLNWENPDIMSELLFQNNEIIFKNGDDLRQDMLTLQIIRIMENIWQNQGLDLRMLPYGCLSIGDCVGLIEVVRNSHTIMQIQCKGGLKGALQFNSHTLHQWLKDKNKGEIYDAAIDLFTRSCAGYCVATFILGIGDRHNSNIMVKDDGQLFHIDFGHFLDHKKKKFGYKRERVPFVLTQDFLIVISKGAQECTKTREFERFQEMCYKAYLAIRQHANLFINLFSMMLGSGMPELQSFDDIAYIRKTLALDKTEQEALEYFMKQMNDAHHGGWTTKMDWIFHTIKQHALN", "T3 sequence (P27986 2-724 partner)": "as the sequence (P27986 2-724 partner) above", "test": "HTRF kinetics, […] ATP", "settings": "PI([…])P2 co-substrate, His-tag removed"}, "[4]": {"target": "T4, p110γ (PI 3-Kγ) (Homo sapiens, UniProt P48736)", "T4 construct": "gene PIK3CG; catalytic subunit only, N-His6-rTEV tag (tag removed by rTEV); baculovirus/Sf9", "T4 sequence (P48736 whole entry)": "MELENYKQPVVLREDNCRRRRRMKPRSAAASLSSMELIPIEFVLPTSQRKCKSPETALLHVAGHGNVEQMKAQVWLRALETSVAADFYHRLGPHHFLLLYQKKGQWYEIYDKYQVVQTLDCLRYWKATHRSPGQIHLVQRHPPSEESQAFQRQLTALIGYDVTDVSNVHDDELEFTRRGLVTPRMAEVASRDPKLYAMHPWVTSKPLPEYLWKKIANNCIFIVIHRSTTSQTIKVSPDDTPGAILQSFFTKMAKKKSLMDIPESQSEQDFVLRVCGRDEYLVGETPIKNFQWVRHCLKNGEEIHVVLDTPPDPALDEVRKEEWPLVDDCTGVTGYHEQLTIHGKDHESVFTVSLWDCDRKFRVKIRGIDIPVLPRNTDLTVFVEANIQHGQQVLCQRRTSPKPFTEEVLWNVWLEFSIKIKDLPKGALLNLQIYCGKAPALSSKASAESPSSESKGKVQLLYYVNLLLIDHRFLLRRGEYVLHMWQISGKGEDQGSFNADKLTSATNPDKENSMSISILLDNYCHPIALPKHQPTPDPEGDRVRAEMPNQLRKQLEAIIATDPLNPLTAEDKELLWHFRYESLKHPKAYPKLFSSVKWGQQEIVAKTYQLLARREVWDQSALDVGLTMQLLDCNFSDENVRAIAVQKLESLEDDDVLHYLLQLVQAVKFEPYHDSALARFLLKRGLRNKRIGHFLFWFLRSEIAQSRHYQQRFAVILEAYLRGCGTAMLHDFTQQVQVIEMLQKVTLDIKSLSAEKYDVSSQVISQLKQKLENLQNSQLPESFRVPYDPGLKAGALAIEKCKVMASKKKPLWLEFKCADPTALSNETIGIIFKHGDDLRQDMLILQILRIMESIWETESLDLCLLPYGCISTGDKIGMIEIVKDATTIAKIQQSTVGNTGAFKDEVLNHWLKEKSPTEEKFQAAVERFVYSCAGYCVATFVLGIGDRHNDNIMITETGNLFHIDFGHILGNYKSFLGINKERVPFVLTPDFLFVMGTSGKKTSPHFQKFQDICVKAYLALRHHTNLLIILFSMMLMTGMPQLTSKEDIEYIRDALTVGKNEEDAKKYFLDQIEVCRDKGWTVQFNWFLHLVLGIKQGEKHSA", "test": "HTRF kinetics, […] ATP", "settings": "PI([…])P2 co-substrate, His-tag removed"}, "[5]": {"target": "T2, p110β (PI 3-Kβ, p110β/p85α)", "test": "HTRF lipid kinase assay", "settings": "[…] ATP, PI([…])P2 substrate, His-tag removed"}, "[6]": {"target": "T4, p110γ (PI 3-Kγ)", "test": "HTRF lipid kinase assay"}},
  "data": [
    {"smiles": "Nc1ncnc2c1ncn2[C@@H]1O[C@H](COP(=O)(O)OP(=O)(O)OP(=O)(O)O)[C@@H](O)[C@H]1O", "note": "[ATP]", "values": [
      {"measurement": "Km", "setting": "[1]", "result": "(B) Km for ATP in μM"},
      {"measurement": "Km", "setting": "[2]", "result": "(B) Km for ATP in μM"},
      {"measurement": "Km", "setting": "[3]", "result": "(B) Km for ATP in μM"},
      {"measurement": "Km", "setting": "[4]", "result": "(B) Km for ATP in μM"}
    ]},
    {"smiles": "Cc1cc([C@H](C)Nc2ccccc2)c2oc(N3CCOCC3)cc(=O)c2c1", "note": "[PIK108]", "values": [
      {"measurement": "IC50", "setting": "[5]", "result": 14, "unit": "nM"}
    ]},
    {"smiles": "Cc1ccc([N+](=O)[O-])cc1S(=O)(=O)N(C)/N=C/c1cnc2ccc(Br)cn12", "note": "[PIK-75]", "values": [
      {"measurement": "IC50", "setting": "[6]", "result": 26, "unit": "nM"}
    ]}
  ]
}
